From patent US20250041294A1, “Synergistic compositions for use in the treatment of cancer” (Sartar Therapeutics Oy, priority 2021, published 2025)

Columns and labels:
Type in all cases: cell-based
[1] = system: GIST882 cell line; experiment: High throughput drug sensitivity and resistance test (CellTiter-Glo, 72 hours); conditions: drug combined with BAY2666605 (40 nM) minus drug alone
Description: High throughput drug sensitivity and resistance test. […] In addition, same compounds were investigated together with anagrelide hydrochloride (100 nM) treatment in the PDE3A low expressing cell lines SA4 and GOT3, and with BAY2666605 (40 nM) in all PDE3A-positive cell lines GIST882, SA4 and GOT3. […] A cell viability was measured after 72 hours using CellTiter-Glo Cell Viability assay (Promega Inc.) and PHERAstar FS plate reader (BMG Labtech). The data were normalized to negative (0.01% dimethyl sulfoxide only) and positive (100 μmol/L benzethonium chloride) controls.
(§1) A four-parameter logistic dose-response curves were estimated by using the Marquardt-Levenberg algorithm and Breeze analysis platform. Drug responses to the test compounds were measured using the drug sensitivity score (DSS). Drug synergy partners, which were common in investigated cell lines were identified as following: DSS value of a single agent was subtracted from the DSS value of anagrelide-drug combination in single cell lines. […] The analysis was repeated by using BAY2666605 as a PDE3A modulator.

[2] = system: GOT3 and SA4 cell lines; experiment: High throughput drug sensitivity and resistance test, average over cell lines (anagrelide combination); conditions: anagrelide combination, average of SA4 and GOT3; aDSS higher than 3.0 = synergy
Description: (§2) Cell lines. PDE3A-positive (GIST882, SA4, and GOT3) and PDE3A-negative cell lines (93TT449, 94T778, LPS141, MLS17656-92, MLS402-91, and SW872) were cultured in RPMI Medium 1640 (Gibco) with 5-, 10- or 20% fetal bovine serum (FBS, gibco), 100 U/mL of penicillin, 100 […] and 0.03 mg/mL of L-glutamine (Pen Strep Glut, Gibco, 10378-016) in a humidified, 5% CO2 atmosphere at 37° C.
(§3) High throughput drug sensitivity and resistance test. A sensitivity and resistance of cancer cell lines to 528 compounds were investigated in 9 cell lines (GIST882, SA4, GOT3, 93TT449, 94T778, LPS141, MLS17656-92, MLS402-91, and SW872). In addition, same compounds were investigated together with anagrelide hydrochloride (100 nM) treatment in the PDE3A low expressing cell lines SA4 and GOT3, and with BAY2666605 (40 nM) in all PDE3A-positive cell lines GIST882, SA4 and GOT3. The compounds were dissolved in 100% dimethyl sulfoxide or water and plated in 10-fold dilutions covering a 10,000-fold concentration range on flat clear bottom 384-well microplates as described in detail earlier (Pulkka O P, et al 2019). A cell viability was measured after 72 hours using CellTiter-Glo Cell Viability assay (Promega Inc.) and PHERAstar FS plate reader (BMG Labtech). The data were normalized to negative (0.01% dimethyl sulfoxide only) and positive (100 μmol/L benzethonium chloride) controls.
as §1

[3] = system: GIST882, GOT3 and SA4 cell lines; experiment: High throughput drug sensitivity and resistance test, average over cell lines (BAY2666605 combination); conditions: for Average DSS (aDSS): BAY2666605 combination, average of GIST882, SA4 and GOT3, aDSS higher than 3.0 = synergy; for synergy in high-throughput screening (in words): with anagrelide (GOT3, SA4) or BAY2666605 (GIST882, GOT3, SA4)
Description: as §2, §3, §1

[4] = system: SA4 cell line; experiment: High throughput drug sensitivity and resistance test (CellTiter-Glo, 72 hours); conditions: SA4; for SA4 cell line: DSS(combo (BAY2666605))-DSS(drug): drug combined with BAY2666605 (40 nM) minus drug alone; for SA4 cell line: DSS(combo (anagrelide))-DSS(drug): drug combined with anagrelide hydrochloride (100 nM) minus drug alone
Description: as §2, §3, §1

[5] = system: GOT3 cell line; experiment: as above; conditions: GOT3; for GOT3 cell line: DSS(combo (BAY2666605))-DSS(drug): drug combined with BAY2666605 (40 nM) minus drug alone; for GOT3 cell line: DSS(combo (anagrelide))-DSS(drug): drug combined with anagrelide hydrochloride (100 nM) minus drug alone
Description: as §2, §3, §1

| SMILES | GIST882 cell line: DSS(combo (BAY2666605))-DSS(drug) [1] | Average DSS (aDSS) [2] | Average DSS (aDSS) [3] | synergy in high-throughput screening (in words) [3] | SA4 cell line: DSS(combo (BAY2666605))-DSS(drug) [4] | SA4 cell line: DSS(combo (anagrelide))-DSS(drug) [4] | GOT3 cell line: DSS(combo (BAY2666605))-DSS(drug) [5] | GOT3 cell line: DSS(combo (anagrelide))-DSS(drug) [5] |
| --- | --- | --- | --- | --- | --- | --- | --- | --- |
| CN(C)Cc1c(C(=O)NCCOc2ccc(C(=O)NO)cc2)oc2ccccc12 [Abexinostat, abexinostat] | 4.2 | 4.9 | 6.2 | synergistic | 12.3 | 10.9 | 2.1 | −1.1 |
| O=C(/C=C/c1cccc(S(=O)(=O)Nc2ccccc2)c1)NO [Belinostat, belinostat] | −0.3 | 5.55 | 5.4 | synergistic | 15.8 | 10 | 0.8 | 1.1 |
| Cn1c(=O)n(-c2ccc(C(C)(C)C#N)cc2)c2c3cc(-c4cnc5ccccc5c4)ccc3ncc21 [Dactolisib, dactolisib] | 3.1 | – | 5.3 | synergistic | 4.6 | – | 8.2 | – |
| NC(=O)/C(=C/n1cnc(-c2cc(C(F)(F)F)cc(C(F)(F)F)c2)n1)c1cncnc1 [Eltanexor, eltanexor] | 5.4 | – | 3.1 | synergistic | 3.1 | – | 0.8 | – |
| CCN(CC)Cc1ccc2cc(COC(=O)Nc3ccc(C(=O)NO)cc3)ccc2c1 [Givinostat, givinostat] | 7.3 | 4.65 | 9.6 | synergistic | 18.5 | 10 | 3 | −0.7 |
| COc1cc(C(=O)O)ccc1NC(=O)[C@@H]1N[C@@H](CC(C)(C)C)[C@](C#N)(c2ccc(Cl)cc2F)[C@H]1c1cccc(Cl)c1F [Idasanutlin, idasanutlin] | 0 | 3.75 | 6.4 | synergistic | 19.6 | 8.5 | −0.5 | −1 |
| CO[C@@H](C)Cn1c(=O)n(C)c2cnc3ccc(-c4cncc(C(C)(C)O)c4)cc3c21 [LY3023414] | 2.4 | – | 4.4 | synergistic | 9.3 | – | 1.5 | – |
| COc1ccc(-c2ccc3ncc4c(c3c2)n(-c2ccc(N3CCNCC3)c(C(F)(F)F)c2)c(=O)n4C)cn1 [NVP-BGT226] | 6.2 | – | 4.8 | synergistic | 8.1 | – | 0.1 | – |
| CC(=O)c1cnc2ccc(-c3cc(Cl)c(O)c(Cl)c3)nc2c1N[C@H]1CC[C@H](CN(C)C)CC1 [OTS167] | 1.9 | 5.55 | 5.2 | synergistic | 10.5 | 10.5 | 3.2 | 0.6 |
